Assay results taken from US20120214193A1, “METHOD FOR MEASUREMENT OF FLUORESCENCE INTENSITY OF VOLTAGE-SENSITIVE FLUORESCENT DYE” (Keio University, priority 2009, published 2012).

Test system: human ES cell derived cardiomyocytes
Test: Activity potential measurement of cardiomyocytes treated with a potential-sensitive fluorochrome
Assay type: cell-based
Conditions: 18.75 μM vitamin E and/or 18.75 μM cholesterol
Source text: Human embryonic stem cells (ES cells) were obtained from Stem Cell Research Center, the Institute for Frontier Medical Sciences, Kyoto University (Embryonic Stem Cell Center sponsored by the National Bioresource Project). Human induced pluripotent stem cells (iPS cells) were obtained from the Center for iPS Cell Research and Application, Institute for Integrated Cell-Material Sciences, Kyoto University. […] To prepare the MEF cells, the fetus of an ICR mouse at day 14 of gestation (CLEA Japan, Inc.) was beheaded and disemboweled and thereafter disintegrated into discrete cells by the method described in WO 2006/022377. […] In other experiments, the cultured cells were treated with a potential-sensitive fluorochrome and 18.75 μM of vitamin E and/or 18.75 μM of cholesterol and then the temporal change in fluorescent intensity was measured. […]

Row | Compound | detection of activity potential waveforms from single cardiomyocytes (FIG. 5)
1 | vitamin E | became observable
2 | CC(C)CCC[C@@H](C)[C@H]1CC[C@H]2[C@@H]3CC=C4C[C@@H](O)CC[C@]4(C)[C@H]3CC[C@]12C [cholesterol] | became observable
